Data reported in US8044057B2, “Methods for suppressing an immune response or treating a proliferative disorder” (The United States of America as represented by the …, priority 2003, dated 2011).

Columns and labels:
mTOR [1] = assay: Western blot of phospho-mTOR S2481 in PASM cells; assay type: cell-based, human
Method: HPASM cells were purchased from Clonetics and passaged according to the manufacturer's instructions. Cells were plated in 100 mm dishes, and allowed to grow to near confluence before serum starvation for 24 hours. Inhibitors were added to the media 1 hour before the addition of 10% FBS for 30 minutes. Cells were homogenized and the indicated proteins were detected by Western blot.
Measurement of protein phosphorylation: A549 cells were incubated in serum-free medium without or with inhibitors for 1 hour, as indicated, before incubation for 30 minutes with a mixture of LPS, 100 μg/ml (Sigma; St. Louis, Mo.) and IFN-γ, 100 U/ml (Roche; Nutley, N.J.). PASM cells were incubated in serum-free medium without or with inhibitors for 24 h as indicated, before incubation for 30 min with 10% FBS. A549 or PASM cells were washed once with cold PBS and incubated for 15 minutes on ice ih lysis buffer (20 mM Tris pH 8.0, 1% Nonidet P-40, 1 mM EDTA, 5 mM benzamidine, aprotinin, 10 μg/ml, leupeptin, 10 μg/ml, trypsin soybean inhibitor, 1 mM PMSF, 50 mM sodium fluoride, 100 μM sodium orthovanadate, and 1: 100 Sigma phosphatase inhibitor set I containing cantharidin, microcystin LR and bromotetramizole). After freezing and thawing, lysates were centrifuged for 30 min at 16,000×g before protein measurement and storage at −80° C. […] Integrated band densities were quantified using Scion Image beta 3b software.

NOD mouse model = assay: NOD and Hashimoto's autoimmune animal models; assay type: in vivo; conditions: compared to untreated animals
Description: There are several animal based autoimmune models that can be used to test the use of the compounds disclosed herein for the treatment of an autoimmune disorder. Table 2 lists several exemplary immune-mediated disorders that can be treated using a peptide/MHC complex. For example, the non-obese diabetic (NOD) mouse model is an animal model system wherein animals develop diabetes with increasing age. To test the efficacy of a particular compound, groups of animals at the prediabetic stage (4 weeks or younger) are treated with, for example, LY303511, or LY303511 in combination with an additional immunosuppressive agent. The number of animals developing diabetes, and the rate that the anirnals develop diabetes, is then analyzed. Similarly, in the Hashimoto's mouse model system, to test the efficacy of a vaccine, groups of animals prior to the development of symptoms are treated with a treated with, for example, LY303511, or LY303511 in combination with an additional immunosuppressive agent. The number of animals developing the disease, and the rate that the animals develop the disease, are then analyzed.

A549 cells = assay: Western blot of cell cycle inhibitors, cyclins and phospho-Rb in A549 cells; assay type: cell-based, human
Method: FIGS. 3A-3B are bar graphs and digital images showing the effect of LY303511 on the levels of cell cycle inhibitors and cyclins. A549 cells (˜1×10^6 cells per 100-mm dish) were grown for 48 h before addition of 0.1% DMSO, 100 μM LY303511, or rapamycin, 200 ng/ml, for 0, 12, or 24 hours. At the indicated times, cells were homogenized and stored at −80° C. For Western blot analyses, samples (70 μg) of lysate proteins separated by SDS-PAGE were transferred to nitrocellulose membranes and reacted with the following antibodies: A. Phospho-S6K T389 (pS6K), p27 Kip1, p21 Cip1, phospho-Rb S807/S811, or B. Cyclin A, Cyclin B, Cyclin D, and Cyclin E. All blots are from one experiment. Data below (relative density) are means of densitometric values from duplicate dishes treated with inhibitors for 24 hours relative to DMSO control=1.0 in three experiments. *p<0.05 vs. DMSO control by Student's t-test.
(§1) In another experiment, A549 cells were grown to sub-confluence in serum-containing media, and incubated with a vehicle, 100 mcM LY303511, or rapamycin, 200 ng/ml for 0, 12, or 24 hours. Cells were lysed, and proteins separated by SDS-PAGE before transfer to nitrocellulose membranes. Membranes were incubated with antibodies against p27Kip1, p21 Cip1 orphospho-P70 S6 kinase T389.

P70 S6 kinase = assay: Western blot of phospho-p70 S6 kinase T389 in A549 cells; assay type: cell-based, human
Method: A549 cells were treated without or with 100 mcM LY303511, 200 ng/ml rapamycin, or 50 nM wortmannin in serum free media for 1 hour before addition of E. coli lipopolysaccharide (LPS), […] and interferon (IFN)-γ, 100 U/ml (LPS/IFN-γ or “L/I”). Cells were homogenized and the indicated proteins (see Table 1) were detected by Western blot. Western blots are from the same experiment, and representative of three experiments.
as §1
Measurement of protein phosphorylation: A549 cells were incubated in serum-free medium without or with inhibitors for 1 hour, as indicated, before incubation for 30 minutes with a mixture of LPS, 100 μg/ml (Sigma; St. Louis, Mo.) and IFN-γ, 100 U/ml (Roche; Nutley, N.J.). PASM cells were incubated in serum-free medium without or with inhibitors for 24 h as indicated, before incubation for 30 min with 10% FBS. A549 or PASM cells were washed once with cold PBS and incubated for 15 minutes on ice ih lysis buffer (20 mM Tris pH 8.0, 1% Nonidet P-40, 1 mM EDTA, 5 mM benzamidine, aprotinin, 10 μg/ml, leupeptin, 10 μg/ml, trypsin soybean inhibitor, 1 mM PMSF, 50 mM sodium fluoride, 100 μM sodium orthovanadate, and 1: 100 Sigma phosphatase inhibitor set I containing cantharidin, microcystin LR and bromotetramizole). After freezing and thawing, lysates were centrifuged for 30 min at 16,000×g before protein measurement and storage at −80° C. Equal amounts of total protein were separated by SDS-PAGE, and transferred to a nitrocellulose membrane, before immunoblotting with primary antibodies as indicated. Membranes were treated with anti-rabbit IgG or anti-mouse IgG antibodies (Promega; Madison, Wis.) linked to horseradish peroxidase, developed using an enhanced chemiluminescence detection kit (SuperSignal West Pico, Pierce; Rockford, Ill.), and exposed to X-ray film, which was scanned using an Epson Expression 636 scanner. Integrated band densities were quantified using Scion Image beta 3b software.

mTOR [2] = assay: Western blot of phospho-mTOR S2481 (autophosphorylation) in A549 cells; assay type: cell-based, human; conditions: 0-100 μM LY303511, LPS/IFN-γ
Method: Cells were reacted with 0-100 μM LY303511 for 1 hour before addition of L/I for 30 min and preparation of cell lysates. Samples (70 μg) of proteins were separated by SDS-PAGE and transferred to nitrocellulose membranes before immunodetection of phospho-p70 S6 kinase T389 (pS6K), phospho-Akt S473 (pAkt), total p70 S6 kinase (S6K), total Akt (Akt), phospho-mTOR S2481 (pmTOR), or total mTOR (mTOR) by Western blot. Positions of protein standards (kDa) are on the right. For the bar graph and digital images shown in FIG. 1D, band density measurements were also represented graphically. Integrated band densities for pmTOR were normalized to those of total mTOR. […]
A549 cells were treated without or with 100 mcM LY303511, 200 ng/ml rapamycin, or 50 nM wortmannin in serum free media for 1 hour before addition of E. coli lipopolysaccharide (LPS), 1000 mcglml and interferon (IFN)-γ, 100 U/ml (LPS/IFN-γ or “L/I”). Cells were homogenized and the indicated proteins (see Table 1) were detected by Western blot. […]
Measurement of protein phosphorylation: A549 cells were incubated in serum-free medium without or with inhibitors for 1 hour, as indicated, before incubation for 30 minutes with a mixture of LPS, 100 μg/ml (Sigma; St. Louis, Mo.) and IFN-γ, 100 U/ml (Roche; Nutley, N.J.). […] Integrated band densities were quantified using Scion Image beta 3b software.

[3] = 100 mcM LY303511 or rapamycin 200 ng/ml, 12 and 24 hours

SMILES: O=c1cc(N2CCNCC2)oc2c(-c3ccccc3)cccc12 [LY303511, 2-(4-piperazinyl)-8-phenyl-4H-1-benzopyran-4-one]
- serum-stimulated phosphorylation of mTOR at S2481 (mTOR [1]): inhibited serum-stimulated phosphorylation of mTOR at S2481
- progression or development of autoimmune disease (NOD mouse model): delays the progression of the disease, or provides protection from developing the disease
- phosphorylation of Rb (S807/S811) (A549 cells; 100 mcM LY303511): reduced the phosphorylation of Rb
- levels of cyclin A and B (A549 cells; 100 mcM LY303511 or rapamycin 200 ng/ml): decreased levels of cyclin A and B
- p21 Cip1 level (A549 cells; [3]): significant increase in p21 Cip1
- p27Kip1 level (A549 cells; [3]): accumulation of p27Kip1
- phosphorylation of P70 S6 kinase at T389 (P70 S6 kinase; A549 cells in serum-containing media, 100 mcM LY303511 or rapamycin 200 ng/ml, 12 and 24 hours): blocked phosphorylation of P70 S6 kinase at T389
- lowest concentration inhibiting LPS/IFNγ-stimulated mTOR activity and mTOR-dependent phosphorylation of S6K (P70 S6 kinase; A549 cells, LPS/IFNγ-stimulated): 1 µM
- phosphorylation of P70 S6 kinase (pS6K T389) (P70 S6 kinase; A549 cells, 100 mcM LY303511, rapamycin 200 ng/ml or wortmannin for 1 hour before LPS/IFN-γ, Western blot): blocks phosphorylation of P70 S6 kinase
- IC50 (P70 S6 kinase; Homo sapiens, A549 cells, stimulated, densitometric analysis of pS6K phosphoblots, read-out: IC50 for inhibition of S6K phosphorylation): ~10 µM
- autophosphorylation of mTOR (S2481) (mTOR [2]): inhibits autophosphorylation of mTOR in a concentration-dependent fashion
